A short description of data set [1]: Antimicrobial activity by analysis based on U.S. Pharmacopeia 28. Particulars: dried vancomycin hydrochloride of Example 9. As to the method:
(§1) Next, chilled absolute ethanol was added to the concentrate drop by drop until vancomycin hydrochloride was crystallized, the slurry was left in refrigerator for 12 hours to accelerate the crystallization, and then the slurry was filtered off. The filtered precipitate was dried in a vacuum dryer at 40° C. […] The analytical results are illustrated in FIG. 3 and FIG. 4.

Data set [2] in a line: Solubility of dried powder. Type of data set: physicochemical. Particulars: dried vancomycin hydrochloride of Example 9. As to the method:
as §1

The record followed here is patent publication US20080193986A1, “Mutant strain of Amycolatopsis orientalis and process for preparing vancomycin hydrochloride” (priority 2007, published 2008).

Counter-ions that a name gives are not always drawn.

As for `CN[C@H](CC(C)C)C(=O)N[C@H]1C(=O)N[C@@H](CC(N)=O)C(=O)N[C@H]2C(=O)N[C@H]3C(=O)N[C@H](C(=O)N[C@H](C(=O)O)c4cc(O)cc(O)c4-c4cc3ccc4O)[C@H](O)c3ccc(c(Cl)c3)Oc3cc2cc(c3O[C@@H]2O[C@H](CO)[C@@H](O)[C@H](O)[C@H]2O[C@H]2C[C@](C)(N)[C@H](O)[C@H](C)O2)Oc2ccc(cc2Cl)[C@H]1O` [vancomycin hydrochloride], the antimicrobial activity in data set [1] turned out to be 1050 U. For the same molecule, the solubility of powder entry in data set [2] is reported as “freely soluble”.
